Results published in US6225345A, “Azahexane derivatives as substrate isosters of retroviral asparate proteases” (Novartis AG, priority 1995, dated 2001).

What was measured:
HIV-1/MN in MT-2-cells = assay: Protection of HIV-1/MN-infected MT-2-cells, reverse transcriptase activity; assay type: cell-based; settings: Human immunodeficiency virus 1, MT2, 96 h; 90% reduction of RT activity; HIV-1-infected MT-2-cells; 4 days; read-out: ED90 (the source's name)
Text: In a further test it can be shown that compounds of formula I protect cells normally infected by HIV from such an infection or at least slow down such an infection. For this test, MT-2-cells infected with HIV-1/MN are used. MT-2-cells have been transformed with a continuous producer of HTLV-1 (a virus causing leukaemia); they are therefore especially sensitive to the cytopathogenic effect of HIV. MT-2-cells can be obtained via the AIDS Research and Reference Reagent Program, Division of AIDS, NIAID, NIH from Dr. Douglas Richman (see J. Biol. Chem. 263, 5870-5875 (1988) and also Science 229, 563-566 (1985)). The MT-2-cells are cultured in RPMI 1640-medium (Gibco, Scotland; RPMI comprises an amino acid mixture without glutamine) supplemented with 10% heat-inactivated foetal calf serum, glutamine and standard antibiotics. In all cases the cells, and also the virus stock solution used for the infection (HIV-1/MN), are free of mycoplasms. The virus stock solution is prepared as a cell culture supernatant of the permanently infected cell line H9/HIV-1/MN, which can likewise be obtained via the AIDS Research and Reference Program, Division of AIDS, NIAID, NIH from Dr. Robert Gallo (see also Science 224, 500-503 (1984) and Science 226, 1165-1170 (1984)). The titre of the HIV-1/MN virus stock solution (determined by titration onto MT-2-cells) is 4.2×10^5 TCID50/ml (TCID50=Tissue Culture Infective Dose=dose that infects 50% of the MT-2-cells). In order to measure the infection-inhibiting action of the compounds of formula I, 50 μl of the test compound in question in culture medium and 2800 TCID50 of HIV-1/MN in 100 μl of culture medium are added to 2×10^4 exponentially growing MT-2-cells which have been applied in 50 μl of culture medium to 96-well microtitre plates (having a round base). After 4 days' incubation (at 37° C., 5% CO2) a 10 μl sample of the supernatant is taken from each well, transferred to a further 96-well microtitre plate and (if necessary) stored at -20° C. In order to measure the activity of the virus-associated reverse transcriptase, 30 μl of reverse transcriptase (RT) cocktail are added to each sample. The reverse transcriptase cocktail consists of 50 mM Tris (α,α,α-tris(hydroxymethyl)methylamine, Ultra pur, Merck, Germany) pH 7.8; 75 mM KCl, 2 mM dithiothreitol, 5 mM MgCl2; 0.1% Nonidet P40 (detergent; Sigma, Switzerland), 0.8 mM EDTA, 10 μg/ml Poly-A (Pharmacia, Uppsala, Sweden) and 0.16 μg/ml oligo(T) (=pdT(12-18), Pharmacia, Uppsala, Sweden) as "template primer"--if desired, the mixture is filtered through a […] Acrodisc filter (Gelman Sciences Inc., Ann Arbor, USA). It is stored at -20° C. Prior to the test, 0.1% (v/v) [alpha-^32 P]dTTP is added to aliquots of the solution in order to establish a final radioactivity of 10 μCi/ml.
After mixing, the plate is incubated for 2 hours at 37° C. 5 μl of the reaction mixture are transferred to DE81 paper (Whatman, one filter per well). The dried filters are washed three times for 5 minutes with 300 mM NaCl/25 mM trisodium citrate and then once with ethanol and again dried in the air. The radioactivity on the filters is measured in a Matrix Packard 96-well counter (Packard, Zurich, Switzerland). The ED90 values are calculated and are defined as the concentration of the test compound that reduces the RT activity by 90% in comparison with a control without test compound. […]

HIV-1-protease = molecular target: T1, HIV-1-protease (Human immunodeficiency virus type 1 group M subtype B, UniProt P04585); assay: HIV-1-protease inhibition with icosapeptide substrate […] (HPLC); assay type: biochemical; settings: pH 6.0, 37° C., 1 hour, icosapeptide 122 μM
T1 construct: made in house
Procedure: The inhibitory action of the compounds of formula I on the proteolytic activity of HIV-1-protease can be shown, for example, analogously to the method described by A. D. Richards et al., J. Biol. Chem. 265(14), 7733-7736 (1990). In that method the inhibition of the action of HIV-1-protease (prepared in accordance with S. Billich et al., J. Biol. Chem. 263(34), 17905-17908 (1990)) is measured in the presence of the icosapeptide […] SEQ ID NO:1, a synthetic substrate of HIV-1-protease, prepared by peptide synthesis in accordance with known procedures, see J. Schneider et al., Cell 54, 363-368 (1988)), which contains as substrate analogue one of the cleavage sites of the gag-precursor protein (natural substrate of HIV-1-protease). That substrate and its cleavage products are analysed by high performance liquid chromatography (HPLC).
The test compound is dissolved in dimethyl sulfoxide. The enzymatic test is carried out by adding suitable dilutions of the inhibitor in 20 mM β-morpholinoethanesulfonic acid (MES) buffer pH 6.0 to the test mixture. That mixture consists of the above-mentioned iscosapeptide (122 μM) in 20 mM MES-buffer pH 6.0. 100 μl are used per test batch. The reaction is started by the addition of […] of HIV-1-protease solution and is stopped after one hours incubation at 37° C. by the addition of 10 μl of 0.3M HClO4. After centrifugation of the sample at 10,000×g for 5 minutes, […] of the resulting supernatant are applied to a 125×4.6 mm Nucleosil® C18-5m-HPLC column (reversed-phase material supplied by Macherey & Nagel, Duren, FRG, based on silica gel that has been charged with C18 alkyl chains). The uncleaved icosapeptide and its cleavage products are eluted from the column by means of the following gradient: 100% eluant 1→50% eluant 1+50% eluant 2 (eluant 1: 10% acetonitrile, 90% H2 O, 0.1% trifluoroacetic acid (TFA); eluant 2: 75% acetonitrile, 25% H2 O, 0.08% TFA) for 15 minutes, throughflow rate 1 ml/min. The quantification of the eluted peptide fragments is carried out by measuring the peak height of the cleavage product at 215 nm.
In the test system described above (with […]), SEQ ID NO:1 the following IC50 values are obtained for Examples 1 to 5: […]

in vivo = settings: mouse, po, 120 mg/kg
Procedure: In order to determine their pharmacokinetics, the compounds of formula I are dissolved in dimethyl sulfoxide (DMSO) in a concentration of 240 mg/ml. The resulting solutions are diluted 1:20 (v/v) with 20% (w/v) aqueous hydroxypropyl-β-cyclodextrin solution in order to obtain a concentration of the test compound in question of 12 mg/ml. The resulting solution is treated briefly with ultrasound and administered orally to female BALB/c mice (Bomholt-garden, Copenhagen, Denmark) by artificial tube feeding at a dose of 120 mg/kg. At fixed times (for example 30, 60, 90, 120 min) after administration, mice are sacrificed and the plasma stored in heparinised test tubes. The blood is centrifuged (12,000×g, 5 min) and the plasma removed. The plasma is deproteinised by the addition of an equal volume of acetonitrile. The mixture is mixed using a vortex mixer and left to stand at room temperature for 20 to 30 minutes. The precipitate is pelleted by centrifugation (12,000×g, 5 min), and the concentration of the test compound is determined by reversed phase high performance liquid chromatography (HPLC).
The HPLC analysis of the samples obtained in accordance with the method described above is carried out on a 125×4.6 mm Nucleosil® C18 -column (reversed-phase material supplied by Macherey & Nagel, Duren, Germany, based on silica gel derivatised with carbon radicals having 18 carbon atoms), using a 2 cm long preliminary column of the same column material. The test is carried out with the following linear acetonitrile/water gradient (in each case in the presence of 0.05% trifluoroacetic acid): 20% acetonitrile to 100% acetonitrile for 20 min; then 5 min 100% acetonitrile; then returning to the initial conditions for 1 min and 4 min reequilibration. The flow rate is 1 ml/min. […] The test compound is detected by UV absorption measurement at 255 nm. Peaks are identified by the retention time and the UV spectrum between 205 and 400 nm. The concentrations are determined by the external standard method; the peak heights are obtained for determining the concentrations by comparison with standard curves.

[1] = in vivo, po; cited from earlier work
virus replication = settings: in words; cited from earlier work
[2] = in vivo; cited from earlier work
HIV-protease = settings: cited from earlier work
[3] = test system: CD4-lymphocytes in the blood; settings: AIDS patients, in words; cited from earlier work

| SMILES | EC90 (HIV-1/MN in MT-2-cells) [nM] | IC50 (HIV-1-protease) [nM] | concentration at 0.5 h (in vivo) [nM] | concentration at 1.5 h (in vivo) [nM] | blood levels in rodents [1] | virus replication in cell experiments (virus replication) | blood levels in humans [2] | inhibitory action against HIV-protease in vitro (HIV-protease) | surrogate-marker (titre of the CD4-lymphocytes) [3] |
| --- | --- | --- | --- | --- | --- | --- | --- | --- | --- |
| COC(=O)N[C@H](C(=O)N[C@@H](Cc1ccccc1)[C@@H](O)CN(Cc1ccc(-c2ccccc2)cc1)NC(=O)[C@@H](NC(=O)OC)C(C)(C)C)C(C)(C)C [Example 5, 1-(4-Biphenylyl)-4(S)-hydroxy-5(S)-2,5-bis[N-(N-methoxycarbonyl-(L)-tert-leucyl)-amino]-6-phenyl-2-azahexane] | 3000 | 58 | 5530 | 4910 |  |  |  |  |  |
| CC(C)(C)NC(=O)[C@@H]1C[C@@H]2CCCC[C@@H]2CN1C[C@@H](O)[C@H](Cc1ccccc1)NC(=O)[C@H](CC(N)=O)NC(=O)c1ccc2ccccc2n1 [Ro 31-8959, N-tert-butyl-decahydro-2-[2(R)-hydroxy-4-phenyl-3(S)-[[N-2-quinolyl-carbonyl-L-asparaginyl]amino]butyl]-(4aS,8aS)-isoquinoline-3(S)-carboxamide] |  |  |  |  | blood levels that are still usable | suppression of virus replication | usable blood levels | exhibits an inhibitory action | initial positive effects |
| COC(=O)N[C@H](C(=O)N[C@@H](Cc1ccccc1)[C@@H](O)CN(Cc1ccc(-c2ccccc2C#N)cc1)NC(=O)[C@@H](NC(=O)OC)C(C)(C)C)C(C)C [Example 4, 1-[4-(2-Cyanophenyl)phenyl)-2-N-(N-methoxycarbonyl-(L)-tert-leucyl)-amino-4(S)-hydroxy-5(S)-N-(N-methoxycarbonyl-(L)-valyl)-amino-6-phenyl-2-azahexane] | 3000 | 43 | 1680 | 1930 |  |  |  |  |  |
| COC(=O)N[C@H](C(=O)NN(Cc1ccc(-c2ccccc2C#N)cc1)C[C@H](O)[C@H](Cc1ccccc1)NC(=O)[C@@H](NC(=O)OC)C(C)(C)C)C(C)C [Example 3, 1-[4-(2-Cyanophenyl)phenyl]-2-N-(N-methoxycarbonyl-(L)-valyl)-amino-4(S)-hydroxy-5(S)-N-(N-methoxycarbonyl-(L)-tert-leucyl)-amino-6-phenyl-2-azahexane] | 10000 | 38 | 1420 | 1950 |  |  |  |  |  |
| COC(=O)N[C@H](C(=O)NN(Cc1ccc(-c2ccccc2)cc1)C[C@H](O)[C@H](Cc1ccccc1)NC(=O)[C@@H](NC(=O)OC)C(C)(C)C)C(C)C [Example 2, 1-(4-Biphenylyl)-2-N-(N-methoxycarbonyl-(L)-valinyl)-amino-4(S)-hydroxy-5(S)-N-(N-methoxycarbonyl-(L)-tert-leucyl)-amino-6-phenyl-2-azahexane] | 3000 | 85 | 640 | 1110 |  |  |  |  |  |
| COC(=O)N[C@H](C(=O)N[C@@H](Cc1ccccc1)[C@@H](O)CN(Cc1ccc(-c2ccccc2)cc1)NC(=O)[C@@H](NC(=O)OC)C(C)(C)C)C(C)C [Example 1, 1-(4-Biphenylyl)-2-N-(N-methoxycarbonyl-(L)-tert-leucyl)-amino-4(S)-hydroxy-5(S)-N-(N-methoxycarbonyl-(L)-valyl)-amino-6-phenyl-2-azahexane] | 3000 | 51 | 6330 | 5350 |  |  |  |  |  |
